Data published in ChEMBL document CHEMBL1152996, “Tetracycline resistance gene tet(W) in the pathogenic bacterium Clostridium difficile” (2008).
Converted amounts (≈) assume the structure as drawn.

How the values were obtained:
Format in all cases: functional
[1] = tested on: Clostridioides difficile; test: Antibacterial activity against Clostridium difficile clinical isolate expressing tet(M) gene by Etest
[2] = tested on: Clostridioides difficile; test: Antibacterial activity against Clostridium difficile CD5 expressing tet(W) gene
[3] = tested on: Clostridioides difficile; test: Antibacterial activity against Clostridium difficile CD37 harboring tet(M) gene from Clostridium difficile CD5

## CN(C)[C@@H]1C(O)=C(C(N)=O)C(=O)[C@@]2(O)C(O)=C3C(=O)c4c(O)cccc4[C@@](C)(O)[C@H]3C[C@@H]12 [TETRACYCLINE]
[1]
  MIC: ≥ 8 µg/mL
[2]
  MIC: 8 µg/mL (≈ 18 µM)
[3]
  MIC: 8 µg/mL (≈ 18 µM)
